Measurements taken from US8106055B2, “Substituted amide compounds” (Gruenenthal GmbH, priority 2007, dated 2012).

What was measured:
[1] = molecular target: T1, serotonin (5-HT) reuptake (Rattus norvegicus, UniProt P31652); test: Inhibition of serotonin (5HT) reuptake in synaptosomes from rat brain; format: biochemical; conditions: test concentration of 10 μM
T1 construct: synaptosomes are freshly isolated from areas of the rat brain; from tissue; host or cells: rat brain synaptosomes (P2 fraction)
Summary of the method: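 Freshly isolated rat brain synaptosomes (P2 fraction) used for 5-HT reuptake. Test compound at 10 μM, activity given as % inhibition.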

[2] = molecular target: T2, human bradykinin 1 receptor (B1R) (Homo sapiens, UniProt P46663); test: Functional investigation on the human bradykinin 1 receptor (B1R), Ca2+ FLIPR assay in CHO K1 hB1R cells; format: cell-based; conditions: B1R antagonism human; test substance 10 μM; Ca2+ FLIPR, CHO K1 hB1R cells
T2 construct: expressed in transfected cells; host or cells: CHO K1 cells
T2 sequence (P46663 1-353): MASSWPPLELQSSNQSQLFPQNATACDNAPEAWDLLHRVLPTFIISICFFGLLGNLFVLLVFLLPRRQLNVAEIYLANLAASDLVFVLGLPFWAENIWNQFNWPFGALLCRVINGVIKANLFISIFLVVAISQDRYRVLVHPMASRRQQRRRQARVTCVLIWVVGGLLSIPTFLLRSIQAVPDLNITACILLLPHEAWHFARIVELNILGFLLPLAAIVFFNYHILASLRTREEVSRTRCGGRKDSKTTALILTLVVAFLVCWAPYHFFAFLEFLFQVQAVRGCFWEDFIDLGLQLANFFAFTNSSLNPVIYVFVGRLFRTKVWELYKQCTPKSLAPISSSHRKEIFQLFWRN
Summary of the method: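 Stably transfected CHO K1 cells loaded with Fluo-4; FLIPR Ca2+ fluorescence peak (ex 488/em 540 nm). Compound added first (agonism vs Lys-Des-Arg9-bradykinin ≥50 nM human, Des-Arg9-bradykinin 10 μM rat), then after 10-20 min agonist at EC80; antagonism as % inhibition, IC50 from concentration series, n=2-3, N≥2.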

T1 sequence (P31652 whole entry): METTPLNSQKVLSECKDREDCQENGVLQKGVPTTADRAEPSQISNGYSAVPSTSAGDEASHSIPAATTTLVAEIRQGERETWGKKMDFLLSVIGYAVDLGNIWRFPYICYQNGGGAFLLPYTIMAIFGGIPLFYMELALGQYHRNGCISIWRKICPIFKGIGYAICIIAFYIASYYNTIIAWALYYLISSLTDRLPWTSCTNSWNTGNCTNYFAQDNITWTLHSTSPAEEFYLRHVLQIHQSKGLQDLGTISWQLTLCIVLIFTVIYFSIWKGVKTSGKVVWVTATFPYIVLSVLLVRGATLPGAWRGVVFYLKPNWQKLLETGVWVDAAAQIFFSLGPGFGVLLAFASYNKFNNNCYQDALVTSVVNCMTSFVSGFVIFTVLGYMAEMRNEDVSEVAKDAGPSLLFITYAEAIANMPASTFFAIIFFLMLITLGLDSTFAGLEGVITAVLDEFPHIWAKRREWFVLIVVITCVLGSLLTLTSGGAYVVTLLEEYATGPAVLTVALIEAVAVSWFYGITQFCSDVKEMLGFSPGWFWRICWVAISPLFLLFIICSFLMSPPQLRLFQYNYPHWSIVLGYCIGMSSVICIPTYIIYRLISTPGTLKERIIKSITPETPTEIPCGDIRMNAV

SMILES	5-HT (inhibition of reuptake of serotonin, % inhibition) [1] [%]	B1R Ant. h [10 μM] % Inhibition [2] [%]
COc1cc(C)c(S(=O)(=O)N2CCCC(OCC(=O)NC3CCC(C(c4cccc(F)c4)N(C)C)CC3)C2)c(C)c1C (stereo not shown) [Example 279]	85	23
CN(C)C(c1ccc(F)cc1)C1CCC(CNC(=O)COC2CCCCC2N(C)S(=O)(=O)c2ccc(Cl)c(Cl)c2)CC1 (stereo not shown) [Example 359]	90	42
Cc1cc(C)c(S(=O)(=O)N2CCC(OCC(=O)NC3CCC(C(c4ccc(F)cc4)N(C)C)CC3)C2)c(C)c1 (stereo not shown) [Example 332]	88	57
COc1ccc(S(=O)(=O)N2CCCCC2COCC(=O)NCCC2CCC(C(c3cccc(F)c3)N(C)C)CC2)c(OC)c1 (stereo not shown) [Example 281]	89	0
CN(C)C(c1ccc(Cl)cc1)C1CCC(CNC(=O)COCC2CCCN(S(=O)(=O)c3ccccc3)C2)CC1 (stereo not shown) [Example 294]	88	−3
COc1cc(C)c(S(=O)(=O)N(C)CCOCC(=O)NCC2CCC(C(c3ccc(Cl)cc3)N(C)C)CC2)c(C)c1 (stereo not shown) [Example 348]	83	103
Cc1ccc(S(=O)(=O)N(C)CCOCC(=O)NCC2CCC(C(c3ccc(F)cc3)N(C)C)CC2)cc1 (stereo not shown) [Example 362]	105	7
CN(C)C(c1cccc(F)c1)C1CCC(CCNC(=O)COC2CCCN(S(=O)(=O)c3ccccc3)C2)CC1 (stereo not shown) [Example 326]	97	−5
COc1cc(C)c(S(=O)(=O)N(C)CCOCC(=O)NCC2CCC(C(c3ccc(Cl)cc3)N(C)C)CC2)c(C)c1C (stereo not shown) [Example 298]	79	103
CN(C)C(c1ccc(F)cc1)C1CCC(CCNC(=O)COCC2CCCCN2S(=O)(=O)c2ccc(Cl)c(Cl)c2)CC1 (stereo not shown) [Example 337]	96	51
COc1ccc(S(=O)(=O)N2CCCC2COCC(=O)NCC2CCC(C(c3cccc(F)c3)N(C)C)CC2)cc1 (stereo not shown) [Example 313]	93	34
CN(C)C(c1cccc(F)c1)C1CCC(CCNC(=O)COCCN2CCN(S(=O)(=O)c3ccccc3)CC2)CC1 (stereo not shown) [Example 325]	96	45
CN(C)C(c1cccc(F)c1)C1CCC(CNC(=O)COC2CCN(S(=O)(=O)c3ccccc3)C2)CC1 (stereo not shown) [Example 355]	102	−7
CN(C)C(c1cccc(F)c1)C1CCC(CCNC(=O)COCC2CCCN(S(=O)(=O)c3ccccc3)C2)CC1 (stereo not shown) [Example 295]	99	7
CN(C)C(c1ccc(F)cc1)C1CCC(NC(=O)COCCN(Cc2ccccc2)S(=O)(=O)c2ccccc2)CC1 (stereo not shown) [Example 336]	96	20
CN(C)C(c1cccc(F)c1)C1CCC(CNC(=O)COCCN2CCN(S(=O)(=O)c3ccccc3)CC2)CC1 (stereo not shown) [Example 308]	93	−1
CN(C)C(c1ccc(F)cc1)C1CCC(CNC(=O)COCCN(Cc2ccccc2)S(=O)(=O)c2ccccc2)CC1 (stereo not shown) [Example 342]	94	28
CN(C)C(c1cccc(F)c1)C1CCC(CNC(=O)COCCN(C)S(=O)(=O)c2cccc(C(F)(F)F)c2)CC1 (stereo not shown) [Example 302]	92	38
CN(C)C(c1ccccc1)C1CCC(CNC(=O)COC2CCN(S(=O)(=O)c3ccccc3)CC2)CC1 (stereo not shown) [Example 300]	94	−35
CN(C)C(c1ccc(Cl)cc1)C1CCC(CNC(=O)COCCN(C)S(=O)(=O)c2cccc(C(F)(F)F)c2)CC1 (stereo not shown) [Example 314]	93	74
CCN(CCOCC(=O)NCC1CCC(C(c2ccc(F)cc2)N(C)C)CC1)S(=O)(=O)c1c(C)cc(OC)c(C)c1C (stereo not shown) [Example 327]	90	101
CN(C)C(c1ccc(F)cc1)C1CCC(NC(=O)COCCN(C)S(=O)(=O)c2ccc(OC(F)(F)F)cc2)CC1 (stereo not shown) [Example 361]	87	3
CN(C)C(c1ccc(Cl)cc1)C1CCC(CNC(=O)COCCN(Cc2ccccc2)S(=O)(=O)c2ccccc2)CC1 (stereo not shown) [Example 343]	94	12
COc1cc(C)c(S(=O)(=O)N(CCOCC(=O)NCCC2CCC(C(c3cccc(F)c3)N(C)C)CC2)Cc2ccccc2)c(C)c1 (stereo not shown) [Example 358]	92	66
CN(C)C(c1ccc(F)cc1)C1CCC(NC(=O)COC2CCN(S(=O)(=O)c3cccc(C(F)(F)F)c3)C2)CC1 (stereo not shown) [Example 330]	90	−6
COc1cc(C)c(S(=O)(=O)N2CCN(CCOCC(=O)NCCC3CCC(C(c4ccc(Cl)cc4)N(C)C)CC3)CC2)c(C)c1C (stereo not shown) [Example 320]	98	73
